Source: patent US20150252022A1, “RETINOIC ACID RECEPTOR-RELATED ORPHAN RECEPTOR MODULATORS AND USES THEREOF” (INNOV17 LLC, priority 2014, published 2015)

Key:
Format in all cases: cell-based
Details in all cases: 72 h; human CD4+ T cells under TH17-polarizing conditions, 3 days, supernatant ELISA
IL-17A = assay: Human TH17 Cytokine Inhibition as measured by ELISA (IL-17A)
Experimental: (§1) Peripheral blood mononuclear cells (PBMCs) were sourced from freshly prepared leukocyte enriched plasma (buffy coat) from healthy donors (New York Blood Center). PBMCs were isolated by density gradient centrifugation using Ficoll-Paque™ PLUS (GE Healthcare). Human CD4+ T cells were seeded into 96-well plates (5×10^4 cells/well) and activated with plate-bound anti-human (h)-CD3 antibody and soluble h-aCD28 (both at 1 ug/ml; eBioscience) and differentiated into TH17 cells with 20 ng/mL h-IL-6, 5 ng/mL h-TGF-β1, 10 ng/mL h-IL-23 (eBioscience) and 10 ng/mL IL-1β (Miltenyi Biotec) in serum-free TexMACS Medium (Miltenyi Biotec) supplemented with 1% Penicillin/Streptomycin (Lonza) for 3 days. CD4+ T cells propagated under TH17-polarizing conditions were cultured in the presence or absence of various concentrations of compounds with a final concentration of 0.1% DMSO. Supernatants were collected and stored at −20° C. until assayed for IL-17A, IL-17F and IL-21 levels by “Ready-Set-Go” ELISA kits (eBioscience) as per manufacturer's instructions. Endpoint absorbance was read at 450 nm using a microplate reader (Perkin Elmer).

IL-17F = assay: Human TH17 Cytokine Inhibition as measured by ELISA (IL-17F)
Experimental: as §1

IL-21 = assay: Human TH17 Cytokine Inhibition as measured by ELISA (IL-21)
Experimental: as §1

IC50 (IL-17A) | IC50 (IL-17F) | IC50 (IL-21) | SMILES
< 10 µM | < 10 µM | < 10 µM | Cc1cc2cc(-c3cn[nH]c3)ccc2n1CC1CC(C)N(C(=O)CCc2ccccc2)C1 (racemic) [Example 131, rac-1-(2-methyl-4-((2-methyl-5-(1H-pyrazol-4-yl)-1H-indol-1-yl)methyl)pyrrolidin-1-yl)-3-phenylpropan-1-one]
< 10 µM | < 10 µM | < 10 µM | C[C@H]1C[C@@H](Cn2ccc3cc(-c4cn[nH]c4)ccc32)CN1C(=O)CCc1ccccc1 (relative stereo) [Example 127, cis-1-(4-((5-(1H-pyrazol-4-yl)-1H-indol-1-yl)methyl)-2-methylpyrrolidin-1-yl)-3-phenylpropan-1-one]
< 10 µM | < 10 µM | < 10 µM | C[C@@H]1C[C@@H](Cn2ccc3cc(-c4cn[nH]c4)ccc32)CN1C(=O)CCc1ccccc1 (relative stereo) [Example 129, trans-1-(4-((5-(1H-pyrazol-4-yl)-1H-indol-1-yl)methyl)-2-methylpyrrolidin-1-yl)-3-phenylpropan-1-one]
< 10 µM | > 10 µM | > 10 µM | O=C(c1ccccc1)N1CCC(CN2CCc3cc(-c4cn[nH]c4)ccc32)C1 (centres unmarked) [Example 9, (3-((5-(1H-pyrazol-4-yl)indolin-1-yl)methyl)pyrrolidin-1-yl)(phenyl)methanone]
< 10 µM | < 10 µM | < 10 µM | O=C(Cc1ccccc1)N1CCC(CN2CCc3cc(-c4cn[nH]c4)ccc32)C1 (centres unmarked) [Example 10, 1-(3-((5-(1H-pyrazol-4-yl)indolin-1-yl)methyl)pyrrolidin-1-yl)-2-phenylethanone]
< 10 µM | < 10 µM | < 10 µM | O=C(CCc1ccccc1)N1CCC(CN2CCc3cc(-c4cn[nH]c4)ccc32)C1 (centres unmarked) [Example 11, 1-(3-((5-(1H-pyrazol-4-yl)indolin-1-yl)methyl)pyrrolidin-1-yl)-3-phenylpropan-1-one]
< 10 µM | < 10 µM | > 10 µM | O=C(C1CCCCC1)N1CCC(CN2CCc3cc(-c4cn[nH]c4)ccc32)C1 (centres unmarked) [Example 12, (3-((5-(1H-pyrazol-4-yl)indolin-1-yl)methyl)pyrrolidin-1-yl)(cyclohexyl)methanone]
< 10 µM | < 10 µM | > 10 µM | O=C(CC1CCCCC1)N1CCC(CN2CCc3cc(-c4cn[nH]c4)ccc32)C1 (centres unmarked) [Example 13, 1-(3-((5-(1H-pyrazol-4-yl)indolin-1-yl)methyl)pyrrolidin-1-yl)-2-cyclohexylethanone]
< 10 µM | < 10 µM | > 10 µM | CC(C)CC(=O)N1CCC(CN2CCc3cc(-c4cn[nH]c4)ccc32)C1 (centres unmarked) [Example 14, 1-(3-((5-(1H-pyrazol-4-yl)indolin-1-yl)methyl)pyrrolidin-1-yl)-3-methylbutan-1-one]
> 10 µM | > 10 µM | < 10 µM | CC(C)C(=O)N1CCC(CN2CCc3cc(-c4cn[nH]c4)ccc32)C1 (centres unmarked) [Example 15, 1-(3-((5-(1H-pyrazol-4-yl)indolin-1-yl)methyl)pyrrolidin-1-yl)-2-methylpropan-1-one]
< 10 µM | < 10 µM | < 10 µM | CC1CC(CN2CCc3cc(-c4cn[nH]c4)ccc32)CN1C(=O)c1ccccc1 (centres unmarked) [Example 24, (4-((5-(1H-pyrazol-4-yl)indolin-1-yl)methyl)-2-methylpyrrolidin-1-yl)(phenyl)methanone]
< 10 µM | < 10 µM | < 10 µM | CC1CC(CN2CCc3cc(-c4cn[nH]c4)ccc32)CN1C(=O)Cc1ccccc1 (centres unmarked) [Example 25, 1-(4-((5-(1H-pyrazol-4-yl)indolin-1-yl)methyl)-2-methylpyrrolidin-1-yl)-2-phenylethanone]
< 10 µM | < 10 µM | < 10 µM | CC1CC(CN2CCc3cc(-c4cn[nH]c4)ccc32)CN1C(=O)CCc1ccccc1 (centres unmarked) [Example 26, 1-(4-((5-(1H-pyrazol-4-yl)indolin-1-yl)methyl)-2-methylpyrrolidin-1-yl)-3-phenylpropan-1-one]
< 10 µM | < 10 µM | < 10 µM | CC1CC(CN2CCc3cc(-c4cn[nH]c4)ccc32)CN1C(=O)C1CCCCC1 (centres unmarked) [Example 27, (4-((5-(1H-pyrazol-4-yl)indolin-1-yl)methyl)-2-methylpyrrolidin-1-yl)(cyclohexyl)methanone]
< 10 µM | < 10 µM | < 10 µM | CC1CC(CN2CCc3cc(-c4cn[nH]c4)ccc32)CN1C(=O)CC1CCCCC1 (centres unmarked) [Example 28, 1-(4-((5-(1H-pyrazol-4-yl)indolin-1-yl)methyl)-2-methylpyrrolidin-1-yl)-2-cyclohexylethanone]
< 10 µM | < 10 µM | < 10 µM | CC(C)CC(=O)N1CC(CN2CCc3cc(-c4cn[nH]c4)ccc32)CC1C (centres unmarked) [Example 29, 1-(4-((5-(1H-pyrazol-4-yl)indolin-1-yl)methyl)-2-methylpyrrolidin-1-yl)-3-methylbutan-1-one]

IC50 (IL-17A) | IC50 (IL-17F) | IC50 (IL-21) | SMILES
< 10 µM | < 10 µM | < 10 µM | CC(C)C(=O)N1CC(CN2CCc3cc(-c4cn[nH]c4)ccc32)CC1C (centres unmarked) [Example 30, 1-(4-((5-(1H-pyrazol-4-yl)indolin-1-yl)methyl)-2-methylpyrrolidin-1-yl)-2-methylpropan-1-one]
< 10 µM | < 10 µM | > 10 µM | O=C(c1ccccc1)N1CCC(CN2CCc3cc(-c4cn[nH]c4)ccc32)CC1 [Example 39, (4-((5-(1H-pyrazol-4-yl)indolin-1-yl)methyl)piperidin-1-yl)(phenyl)methanone]
< 10 µM | < 10 µM | < 10 µM | O=C(Cc1ccccc1)N1CCC(CN2CCc3cc(-c4cn[nH]c4)ccc32)CC1 [Example 40, 1-(4-((5-(1H-pyrazol-4-yl)indolin-1-yl)methyl)piperidin-1-yl)-2-phenylethanone]
< 10 µM | < 10 µM | < 10 µM | O=C(CCc1ccccc1)N1CCC(CN2CCc3cc(-c4cn[nH]c4)ccc32)CC1 [Example 41, 1-(4-((5-(1H-pyrazol-4-yl)indolin-1-yl)methyl)piperidin-1-yl)-3-phenylpropan-1-one]
< 10 µM | < 10 µM | < 10 µM | O=C(C1CCCCC1)N1CCC(CN2CCc3cc(-c4cn[nH]c4)ccc32)CC1 [Example 42, (4-((5-(1H-pyrazol-4-yl)indolin-1-yl)methyl)piperidin-1-yl)(cyclohexyl)methanone]
< 10 µM | < 10 µM | < 10 µM | O=C(CC1CCCCC1)N1CCC(CN2CCc3cc(-c4cn[nH]c4)ccc32)CC1 [Example 43, 1-(4-((5-(1H-pyrazol-4-yl)indolin-1-yl)methyl)piperidin-1-yl)-2-cyclohexylethanone]
< 10 µM | < 10 µM | > 10 µM | CC(C)CC(=O)N1CCC(CN2CCc3cc(-c4cn[nH]c4)ccc32)CC1 [Example 44, 1-(4-((5-(1H-pyrazol-4-yl)indolin-1-yl)methyl)piperidin-1-yl)-3-methylbutan-1-one]
> 10 µM | > 10 µM | > 10 µM | CC(C)C(=O)N1CCC(CN2CCc3cc(-c4cn[nH]c4)ccc32)CC1 [Example 45, 1-(4-((5-(1H-pyrazol-4-yl)indolin-1-yl)methyl)piperidin-1-yl)-2-methylpropan-1-one]
< 10 µM | < 10 µM | < 10 µM | O=C(c1ccccc1)N1CCCC(CN2CCc3cc(-c4cn[nH]c4)ccc32)CC1 (centres unmarked) [Example 54, (4-((5-(1H-pyrazol-4-yl)indolin-1-yl)methyl)azepan-1-yl)(phenyl)methanone]
< 10 µM | < 10 µM | < 10 µM | O=C(Cc1ccccc1)N1CCCC(CN2CCc3cc(-c4cn[nH]c4)ccc32)CC1 (centres unmarked) [Example 55, 1-(4-((5-(1H-pyrazol-4-yl)indolin-1-yl)methyl)azepan-1-yl)-2-phenylethanone]
< 10 µM | < 10 µM | < 10 µM | O=C(CCc1ccccc1)N1CCCC(CN2CCc3cc(-c4cn[nH]c4)ccc32)CC1 (centres unmarked) [Example 56, 1-(4-((5-(1H-pyrazol-4-yl)indolin-1-yl)methyl)azepan-1-yl)-3-phenylpropan-1-one]
< 10 µM | < 10 µM | < 10 µM | O=C(CC1CCCCC1)N1CCCC(CN2CCc3cc(-c4cn[nH]c4)ccc32)CC1 (centres unmarked) [Example 57, 1-(4-((5-(1H-pyrazol-4-yl)indolin-1-yl)methyl)azepan-1-yl)-2-cyclohexylethanone]
< 10 µM | < 10 µM | < 10 µM | O=C(C1CCCCC1)N1CCCC(Cn2ccc3cc(-c4cn[nH]c4)ccc32)CC1 (centres unmarked) [Example 58, (4-((5-(1H-pyrazol-4-yl)-1H-indol-1-yl)methyl)azepan-1-yl)(cyclohexyl)methanone]
< 10 µM | < 10 µM | > 10 µM | CC(C)CC(=O)N1CCCC(Cn2ccc3cc(-c4cn[nH]c4)ccc32)CC1 (centres unmarked) [Example 59, 1-(4-((5-(1H-pyrazol-4-yl)-1H-indol-1-yl)methyl)azepan-1-yl)-3-methylbutan-1-one]
< 10 µM | < 10 µM | – | O=C(c1ccccc1)N1CCC(Cn2ccc3cc(-c4cn[nH]n4)ccc32)CC1 [Example 130, (4-((5-(2H-1,2,3-triazol-4-yl)-1H-indol-1-yl)methyl)piperidin-1-yl)(phenyl)methanone]
